Patent publication US20220133728A1, “METHODS FOR TREATING VITILIGO LESIONS HAVING IMPROVED EFFICACY” (ARCUTIS BIOTHERAPEUTICS, INC., priority 2020, published 2022)

What was measured:
JAK 1 = JAK 1 (Homo sapiens, UniProt P23458); settings: cited from earlier work
vitiligo lesions = assay: Proof of Concept, double blind, vehicle-controlled study of ARQ-252 cream 0.3% BID with NB-UVB home phototherapy in non-segmental facial vitiligo; format: in vivo, human; settings: applied topically in combination with narrowband UVB phototherapy, compared to vehicle cream plus narrowband UVB
Description: A Proof of Concept, parallel group, double blind, vehicle-controlled study of the safety and efficacy of a 0.3% SHR0302 topical cream of Example 1 (ARQ-252 cream 0.3%) was designed for subjects with non-segmental facial vitiligo. Subjects with non-segmental facial vitiligo applied either ARQ-252 0.3% cream BID or vehicle cream BID to all affected areas of vitiligo on the face, neck, hands, forearms, and elbows. Product was applied to all affected, depigmented areas and, where anatomically possible, treatment extended approximately 3 cm from the border all around. […]
The two patients were assessed by measures including Facial Vitiligo Area and Severity Index (F-VASI), Facial Body Surface Area (F-BSA), Facial/Neck BSA (F/N-BSA), BSA (Hands, Forearms, Elbows), Facial/Neck VASI (F/N-VASI), VASI of the forearms and elbow (FOREARM-VASI) and VASI of the hands only (HAND-VASI). […] VASI is a quantitative clinical tool that is based on a composite estimate of the overall area of vitiligo patches at baseline and the degree of macular repigmentation within these patches over time. […] BSA affected with vitiligo will be assessed as a percentage of the total BSA, and will be determined to the nearest 0.01% using, as guides, the palm plus 5 digits, with fingers tucked together and thumb tucked to the side (handprint), as 1% BSA and the thumb as 0.1% BSA. […]

JAK 1, sequence (P23458 whole entry, species assumed): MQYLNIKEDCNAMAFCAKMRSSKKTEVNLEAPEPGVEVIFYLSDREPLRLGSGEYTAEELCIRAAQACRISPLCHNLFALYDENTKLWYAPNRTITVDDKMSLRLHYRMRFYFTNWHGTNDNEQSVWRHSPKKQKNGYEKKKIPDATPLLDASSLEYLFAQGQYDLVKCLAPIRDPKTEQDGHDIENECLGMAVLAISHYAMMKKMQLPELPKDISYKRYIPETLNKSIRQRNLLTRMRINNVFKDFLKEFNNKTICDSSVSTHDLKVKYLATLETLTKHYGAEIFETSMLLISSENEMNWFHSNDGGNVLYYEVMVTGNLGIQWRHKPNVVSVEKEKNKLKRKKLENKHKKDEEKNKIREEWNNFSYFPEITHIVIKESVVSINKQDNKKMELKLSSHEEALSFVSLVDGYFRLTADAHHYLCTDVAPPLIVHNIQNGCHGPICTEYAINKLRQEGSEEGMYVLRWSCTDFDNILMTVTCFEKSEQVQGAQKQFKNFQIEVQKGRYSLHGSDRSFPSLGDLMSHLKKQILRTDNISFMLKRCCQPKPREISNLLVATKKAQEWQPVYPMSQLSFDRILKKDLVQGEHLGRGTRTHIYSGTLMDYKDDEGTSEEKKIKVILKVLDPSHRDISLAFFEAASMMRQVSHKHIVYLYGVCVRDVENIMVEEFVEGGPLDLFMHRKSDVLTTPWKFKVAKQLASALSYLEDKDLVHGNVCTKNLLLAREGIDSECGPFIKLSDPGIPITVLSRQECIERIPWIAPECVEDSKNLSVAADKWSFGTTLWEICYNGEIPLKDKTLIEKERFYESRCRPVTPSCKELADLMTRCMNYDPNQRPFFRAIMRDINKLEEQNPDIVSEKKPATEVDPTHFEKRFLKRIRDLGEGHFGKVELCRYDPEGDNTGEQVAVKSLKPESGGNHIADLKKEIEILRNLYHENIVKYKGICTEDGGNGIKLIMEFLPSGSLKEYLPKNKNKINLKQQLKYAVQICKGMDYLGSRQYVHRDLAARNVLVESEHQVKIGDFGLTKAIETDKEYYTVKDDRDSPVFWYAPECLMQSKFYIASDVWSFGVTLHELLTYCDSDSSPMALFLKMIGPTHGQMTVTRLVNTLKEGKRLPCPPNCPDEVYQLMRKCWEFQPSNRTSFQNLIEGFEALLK

**Q.** What does the source list for `COc1nsc(NC(=O)N2C[C@H]3C[C@H](N(C)c4ncnc5[nH]ccc45)C[C@H]3C2)n1` [SHR0302, (3aR,5S,6aS)—N-(3-methoxyl-1,2,4-thiadiazol-5-yl)-5-(methyl(7H-pyrrolo[2,3-d]pyrimidin-4-yl)amino)hexahydrocyclopenta[c]pyrrole-2(1H)-carboxamide]?
**A.** inhibition of JAK 1 (JAK 1): potent; selectivity for JAK1 over JAK2 (JAK 1): high selectively for JAK1 over JAK2; repigmentation of vitiligo lesions (vitiligo lesions): dramatically repigmented
